According to paper PMC2225441, “Partial Restoration of Mutant Enzyme Homeostasis in Three Distinct Lysosomal Storage Disease Cell Lines by Altering Calcium Homeostasis” (PLoS Biology, 2008):

Columns and labels:
[1] = test system: cytoplasmic and ER lumenal chaperones; assay: quantitative RT-PCR of chaperones in L444P GC fibroblasts; format: cell-based, human; conditions: 10 μM; 7-d treatment
Experimental: (§1) Total RNA was extracted from the cells using RNeasy Mini Kit (Qiagen #74104). cDNA was synthesized from 500 ng of total RNA using QuantiTect Reverse Transcription Kit (Qiagen #205311). Quantitative PCR reactions were performed using QuantiTect SYBR Green PCR Kit (Qiagen #204143) and corresponding primers in the ABI PRISM 7900 system (Applied Biosystems). The forward and reverse primers for GC, Hsp40, Hsp70, Hsp90, HIP, HOP, BiP, GRP94, calnexin (CNX), and calreticulin (CRT), and an endogenous housekeeping gene large ribosomal protein (RiboP) are listed in Table S1. Samples were heated for 15 min at 95 °C and amplified in 45 cycles of 15 s at 94 °C, 30 s at 59 °C, and 30 s at 72 °C. Analysis was done using SDS2.1 software (Applied Biosystems). Threshold cycle (CT) was extracted from the PCR amplification plot. The ΔCT value was used to describe the difference between the CT of a target gene and the CT of the housekeeping gene: ΔCT = CT (target gene) – CT (housekeeping gene). The relative mRNA expression level of a target gene of diltiazem-treated cells was normalized to that of untreated cells: Relative mRNA expression level = 2 exp [–(ΔCT (treated cells) – ΔCT (untreated cells))].

GC mRNA = format: cell-based, human; conditions: 10 μM; 6 h, 12 h, 1 d, 3 d, and 5 d
Experimental: as §1

L444P GC [2] = target: T1, L444P GC (Homo sapiens, UniProt P04062, L483P); assay: lysed L444P fibroblasts incubated directly with test substance, lysed cell GC activity assay; format: biochemical; conditions: 0.01 to 1000 μM
T1 construct: homozygous L444P GC patient–derived fibroblasts; host or cells: homozygous L444P Gaucher patient skin fibroblasts
T1 sequence (P04062 40-536 L483P): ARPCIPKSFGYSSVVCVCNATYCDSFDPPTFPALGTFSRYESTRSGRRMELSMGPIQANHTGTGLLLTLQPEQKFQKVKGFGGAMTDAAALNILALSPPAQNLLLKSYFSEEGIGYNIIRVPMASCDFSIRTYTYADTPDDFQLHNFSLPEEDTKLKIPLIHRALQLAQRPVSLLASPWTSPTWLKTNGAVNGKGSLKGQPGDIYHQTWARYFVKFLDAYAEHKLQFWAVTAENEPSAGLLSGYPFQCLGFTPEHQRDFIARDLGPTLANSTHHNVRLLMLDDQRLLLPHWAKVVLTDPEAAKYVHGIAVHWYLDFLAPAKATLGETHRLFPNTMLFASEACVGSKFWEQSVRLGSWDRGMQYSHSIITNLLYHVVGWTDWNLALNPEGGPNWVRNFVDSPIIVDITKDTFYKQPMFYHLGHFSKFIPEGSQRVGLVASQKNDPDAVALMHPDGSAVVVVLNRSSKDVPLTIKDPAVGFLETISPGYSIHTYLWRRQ
Experimental: The intact cell GC activity assay has been previously described. Briefly, cells were plated into 48-well assay plates (500 μl per well). After cell attachment, the media was replaced by media containing small molecules. Media was changed every 3 d. After incubation at 37 °C for the indicated amount of time, the intact cell GC activity assay was performed. The monolayers were washed by DPBS. The reaction was started by the addition of 150 μl of 3 mM 4-methylumbelliferyl β-D-glucopyranoside in 0.2 M acetate buffer (pH 4.0) to each well, followed by incubation at 37 °C for 1–7 h. CBE was used as a control to evaluate the extent of nonspecific GC activity. […] Liberated 4-methylumbelliferone was measured (excitation 365 nm, emission 445 nm) with a SpectraMax Gemini plate reader (Molecular Devices). The lysed cell GC activity assay has been previously described. […] Total cell protein was measured using the Micro BCA assay reagent (Pierce #23235). Thirty μg of total cell protein was assayed for the GC activity in 100 μl of 0.1 M acetate buffer (pH 5.0) containing 3 mM 4-methylumbelliferyl β-D-glucopyranoside in the presence of 0.15% Triton X-100 (v/v, Fisher) and 0.15% taurodeoxycholate (w/v, Calbiochem). CBE was used as a control to evaluate the extent of nonspecific GC activity. […] The GC activity assay for recombinant WT GC enzymes has been previously described. […]

N370S/84GG GC = assay: GC activity in compound heterozygous N370S/84GG GC fibroblasts; format: cell-based, human; conditions: 10 μM; 5-d treatment
L444P GC [3] = assay: Western blot of GC in L444P GC cells; format: cell-based, human; conditions: 0, 0.1, 1, and 10 μM; 7-d treatment; type II Gaucher fibroblasts
Experimental: Total cell protein was measured using the Micro BCA assay reagent. Endo H (New England Biolabs #P0703) was used to digest the cell lysates according to the company instructions. The cell lysates containing equal amount of total protein were separated by 10% SDS-PAGE. Western blot analysis was performed with proper antibodies. Mouse monoclonal anti-GC 8E4 [57] was kindly provided by Klaus-Peter Zimmer (Children's Hospital of the University of Münster, Münster, Germany). Mouse monoclonal anti-GC 2E2 was from Novus Biologicals (#H00002629-M01). Antibodies directed against calnexin (#SPA-860), calreticulin (#SPA-601), Hsp40 (#SPA-400), Hsp70 (#SPA-812), and Hsp90 (#SPA-830) were from Stressgen. Antibodies directed against BiP (#SC-13968) and GRP94 (#SC-11402) were from Santa Cruz Biotechnology. Mouse monoclonal anti-β actin AC-15 was from Sigma (#A1978). Secondary antibodies (#31430 for goat anti-mouse and #31460 for goat anti-rabbit) were from Pierce. Bands were visualized using the SuperSignal West Pico Chemiluminescent Substrate (Pierce #34078) or SuperSignal West Femto Maximum Sensitivity Substrate (Pierce #34095).

## COc1ccc([C@@H]2Sc3ccccc3N(CCN(C)C)C(=O)[C@@H]2OC(C)=O)cc1 [diltiazem]
[1]
  BiP mRNA expression level vs untreated: 1.8 fold
  Hsp40 mRNA expression level vs untreated: 1.8 fold
  Hsp90 mRNA expression level vs untreated: 1.9 fold
  mRNA expression levels of Hsp70, GRP94, calnexin, and calreticulin: not changed significantly
GC mRNA
  GC mRNA expression level vs untreated: Strictly analogous results
L444P GC [2]
  GC inhibition in lysed L444P fibroblasts: No significant GC inhibition was observed
N370S/84GG GC
  N370S/84GG GC activity as % of cellular WT GC activity: ≈ 36%
L444P GC [3]
  L444P GC concentration (Western blot band intensity): elevated in a dose-dependent manner
